27 compounds from patent US7683097B2, “Topoisomerase inhibitors” (Propharmacon Inc., priority 2004, dated 2010) can be followed below.

Type in all cases: cell-based
The subject of test [1] is MCF-7. Nature of the test: Cell proliferation assay, MCF-7. Conditions: Homo sapiens, MCF7; MCF-7 cell line, Table II; read-out: Activity (IC50, cell proliferation). How it is done:
The MCF-7 cell line, the MDR cell line, and the MCF-7/ADR cell line were used. Alamar Blue™ was used to quantitate cell viability.
The compounds listed in Table II were prepared using the procedures outlined in the above Examples.

Test [2] relates to PC-3. Nature of the test: Cell proliferation assay, Prostate Cancer PC-3. Conditions: Homo sapiens, read-out: GI50 or IC50, Prostate Cancer PC-3. How it is done: (§1) The compounds listed in Table IV were prepared using the procedures outlined in the above Examples.
In test [3] the test system is SF-268. Nature of the test: Cell proliferation assay, CNS Cancer SF-268. The conditions noted are these: Homo sapiens, read-out: GI50 or IC50, CNS Cancer SF-268. As for the experimental part:
(§2) The compounds listed in Table III were prepared using the procedures outlined in the above Examples.

The test system of test [4] is SK-MEL-2. Description: Cell proliferation assay, Melanoma SK-MEL-2. Conditions: Homo sapiens, read-out: GI50 or IC50, Melanoma SK-MEL-2. How it is done: as §1
Test [5] relates to HCT-15. Description: Cell proliferation assay, Colon Cancer HCT-15. The conditions noted are these: Homo sapiens, read-out: GI50 or IC50, Colon Cancer HCT-15. As for the experimental part:
as §2

Test [6] relates to OVCAR-3. Nature of the test: Cell proliferation assay, Ovarian Cancer OVCAR-3. Conditions: Homo sapiens, read-out: GI50 or IC50, Ovarian Cancer OVCAR-3. How it is done:
as §1

Test [7] deals with NCI-H460. Nature of the test: Cell proliferation assay, NSC Lung Cancer NCI-H460. Conditions: Homo sapiens, read-out: GI50 or IC50, NSC Lung Cancer NCI-H460. How it is done: as §2
For test [8], the system named is NCI-ADR. Description: Cell proliferation assay, Breast Cancer NCI-ADR. Conditions: Homo sapiens, NCI/ADR-RES; read-out: GI50 or IC50, Breast Cancer NCI-ADR. How it is done: as §1
In test [9] the test system is H69-AR (MDR). Nature of the test: Cell proliferation assay, SC Lung Cancer H69-AR (MDR). The conditions noted are these: Homo sapiens, H69AR; read-out: GI50 or IC50, SC Lung Cancer H69-AR (MDR). As for the experimental part: as §2
The subject of test [10] is HL60-MX1 (MDR). Nature of the test: Cell proliferation assay, Leukemia HL60-MX1 (MDR). The conditions noted are these: read-out: GI50 or IC50, Leukemia HL60-MX1 (MDR). How it is done:
as §2

Test [11] relates to MCF-7. Description: Cell proliferation assay (panel), Breast Cancer MCF-7. Conditions: Homo sapiens, MCF7; read-out: GI50 or IC50, Breast Cancer MCF-7. As for the experimental part:
as §1

For test [12], the system named is MES-SA/Dx5. Nature of the test: Cell proliferation assay, Uterine MES-SA/Dx5. The conditions noted are these: Homo sapiens, read-out: GI50 or IC50, Uterine MES-SA/Dx5. As for the experimental part:
as §1

Test [13] concerns UO-31. Nature of the test: Cell proliferation assay, Renal Cancer UO-31. The conditions noted are these: Homo sapiens, read-out: GI50 or IC50, Renal Cancer UO-31. As for the experimental part: as §1

SMILES strings stand for the structures.

`COc1ncc(NC(=O)c2ccc(Cl)c(-c3ccc(-c4ccccc4)cc3)c2)cn1`: the IC50 in test [1] was less than 1000 nM.

As for `COc1ccc(NC(=O)c2ccc(Cl)c(-c3ccc(-c4cccc(O)c4)cc3)c2)cn1`, the IC50 in test [1] was less than 1000 nM.

For `COc1ccc(NC(=O)c2ccc(Cl)c(-c3cccc(O)c3)c2)cn1`, the IC50 in test [1] is less than 1000 nM.

As for `COc1ccc(NC(=O)c2ccc(Cl)c(-c3ccc(-c4cccc(S(C)(=O)=O)c4)cc3)c2)cn1`, the IC50 in test [1] was less than 1000 nM.

On to `CCN(CC)CCNC(=O)c1ccc(Cl)c(-c2ccc(-c3ccccc3)cc2)c1`, for which the IC50 in [1] was less than 1000 nM.

Regarding `COc1ccc(NC(=O)c2ccc(Cl)c(-c3cccc(C(N)=O)c3)c2)cn1`, in [1], the IC50 is less than 1000 nM.

Turning to `O=C(NCCN1CCCC1)c1cccc(-c2ccc(-c3ccccc3)cc2)c1`, the IC50 in test [1] was 1000 to 10000 nM.

Turning to `C=C[S+]([O-])c1ccc(NC(=O)c2ccc(Cl)c(-c3ccc(-c4ccccc4)cc3)c2)cn1` (stereo not shown), in test [1], the IC50 was in the range of 1000 to 10000 nM.

With `O=C(Nc1nnc(C(F)(F)F)s1)c1ccc(Cl)c(-c2ccc(-c3ccccc3)cc2)c1`, the IC50 in test [1] was 1000 to 10000 nM.

As for `CS(=O)(=O)c1ccc(-c2cc(C(=O)NC3=NCCS3)ccc2Cl)cc1`, the IC50 in test [1] was in the range of 1000 to 10000 nM.

Consider `O=C(NCCc1c[nH]cn1)C1Cc2ccccc2CN1C(=O)c1ccc(Cl)c(-c2ccc(-c3ccccc3)cc2)c1` (stereo not shown), for which the IC50 in [1] is greater than 10000 nM.

Turning to `O=C(Nc1cccnc1Cl)c1ccc(Cl)c(-c2ccc(-c3ccccc3)cc2)c1`, the IC50 in test [1] was greater than 10000 nM.

On to `CC(C)(C)OC(=O)NOC(=O)c1ccc(Cl)c(-c2ccc(-c3ccccc3)cc2)c1`, for which the IC50 in test [1] is greater than 10000 nM.

In the case of `CCN(C(=O)c1ccc(Cl)c(-c2ccc(-c3ccccc3)cc2)c1)c1ccc2c(c1)OCO2`, the IC50 in test [1] was greater than 10000 nM.

`COc1ccc(NC(=O)c2ccc(Cl)c(-c3ccc(-c4ccccc4)c(F)c3)c2)cn1` [Compound 6, 6″-Chloro-2′-fluoro-[1,1′;4′,1″]terphenyl-3″-carboxylic acid (6-methoxy-pyridin-3-yl)-amide]: the IC50 in test [2] is no more than 1000 nM; in test [3] it was 1000 to 25000 nM; in test [4], 1000 to 25000 nM; in [5], no more than 1000 nM; in test [6], no more than 1000 nM; in test [7], no more than 1000 nM. Besides, the IC50 in [8] is no more than 1000 nM; in test [9], no more than 1000 nM; in test [10], no more than 1000 nM; in test [11] it was no more than 1000 nM; in test [12], no more than 1000 nM; in test [13], 1000 to 25000 nM.

With `O=C(Nc1ccc(Cl)nc1)c1ccc(Cl)c(-c2ccc(-c3ccccc3)cc2)c1` [Compound 13, 6-Chloro-[1,1′;4′,1″]terphenyl-3-carboxylic acid (6-chloro-pyridin-3-yl)-amide], the IC50 is no more than 1000 nM in test [2]; 1000 to 25000 nM in test [3]; 1000 to 25000 nM in [4]; no more than 1000 nM in [5]; no more than 1000 nM in [6]; no more than 1000 nM in test [7]. Also, the IC50 in [11] was no more than 1000 nM; in test [13], 1000 to 25000 nM.

With `COc1ccc(NC(=O)c2ccc(Cl)c(-c3ccc(-c4ccncc4)cc3)c2)cn1` [Compound 17, 6-Chloro-4′-pyridin-4-yl-biphenyl-3-carboxylic acid (6-methoxy-pyridin-3-yl)-amide], the IC50 in test [2], in test [3], in test [4], in [5], in test [6] and in test [7] was no more than 1000 nM throughout. For the same compound, the IC50 in [8], in test [10], in [11], in test [12] and in test [13] was no more than 1000 nM in each case.

With `Cc1ccc(NC(=O)c2ccc(Cl)c(-c3ccc(-c4ccccc4)cc3)c2)cc1` [Compound 20, 6-Chloro-[1,1′;4′,1″]terphenyl-3-carboxylic acid p-tolylamide], the IC50 is 1000 to 25000 nM in [2]; 1000 to 25000 nM in test [3]; greater than 25000 nM in [4]; greater than 25000 nM in test [5]; 1000 to 25000 nM in test [6]; 1000 to 25000 nM in [7]. Further, the IC50 is no more than 1000 nM in test [11] and 1000 to 25000 nM in test [13].

As for `O=C(NCCN1CCCC1)c1ccc(Cl)c(-c2ccc(-c3ccccc3)cc2)c1` [Compound 26, 6-Chloro-[1,1′;4′,1″]terphenyl-3-carboxylic acid (2-pyrrolidin-1-yl-ethyl)-amide], the IC50 in test [2], in test [3], in [4], in [5], in [6] and in test [7] was 1000 to 25000 nM throughout. In addition, the IC50 in [11] and in test [13] was 1000 to 25000 nM throughout.

Regarding `O=C(NCC(c1cccnc1)N1CCCC1)c1ccc(Cl)c(-c2ccc(-c3ccccc3)cc2)c1` (stereo not shown) [Compound 32, 6-Chloro-[1,1′;4′,1″]terphenyl-3-carboxylic acid (2-pyridin-3-yl-2-pyrrolidin-1-yl-ethyl)-amide], the IC50 was 1000 to 25000 nM in [3]; 1000 to 25000 nM in [8]; no more than 1000 nM in [9]; 1000 to 25000 nM in test [10]; no more than 1000 nM in test [11]; no more than 1000 nM in [12].

For the compound `O=C(Nc1ccc(N2CCNCC2)nc1)c1ccc(Cl)c(-c2ccc(-c3ccccc3)cc2)c1` [Compound 36, 6″-Chloro-[1,1′;4′,1″]terphenyl-3″-carboxylic acid (6-piperazin-1-yl-pyridin-3-yl)-amide], the IC50 in [7], in [8], in test [11] and in [12] was no more than 1000 nM throughout.

In the case of `COc1ccc(NC(=O)c2ccc(C)c(-c3ccc(-c4ccccn4)cc3)c2)cn1` [Compound 40, 6-Methyl-4′-pyridin-2-yl-biphenyl-3-carboxylic acid (6-methoxy-pyridin-3-yl)-amide], the IC50 in [2] was no more than 1000 nM; in [3], no more than 1000 nM; in test [4], greater than 25000 nM; in test [5], no more than 1000 nM; in test [6] it was no more than 1000 nM; in test [7], no more than 1000 nM. Besides, the IC50 in test [9], in test [10], in test [11] and in test [12] was no more than 1000 nM throughout.

As to `COc1ccc(NC(=O)c2ccc(Cl)c(-c3cccc(-c4ccccc4)c3)c2)cn1` [Compound 68, 6-Chloro-[1,1′;3′,1″]terphenyl-3-carboxylic acid (6-methoxy-pyridin-3-yl)-amide], the IC50 in test [7] and in test [11] was no more than 1000 nM each time.

`O=C(NC(CCc1ccccc1)C(=O)O)c1ccc(Cl)c(-c2cccc(-c3ccccc3)c2)c1` (stereo not shown) [Compound 223, 2-[(6-Chloro-[1,1′;3′,1″]terphenyl-3-carbonyl)-amino]-4-phenyl-butyric acid]: the IC50 in test [3] and in [11] was greater than 25000 nM throughout.

`O=C(NC(CC1CCCCC1)C(=O)O)c1ccc(Cl)c(-c2cccc(-c3ccccc3)c2)c1` (stereo not shown) [Compound 236, 2-[(6-Chloro-[1,1′;3′,1″]terphenyl-3-carbonyl)-amino]-3-cyclohexyl-propionic acid]: the IC50 in test [3] and in test [11] was greater than 25000 nM each time.

As for `COc1ccc(NC(=O)c2ccc(Cl)c(-c3ccc(-c4ccccc4)cc3)c2)cc1` [Compound 303, 6″-Chloro-[1,1′;4′,1″]terphenyl-3″-carboxylic acid (4-methoxy-phenyl)-amide], the IC50 in test [2] was no more than 1000 nM; in test [3], no more than 1000 nM; in [4] it was greater than 25000 nM; in test [5], no more than 1000 nM; in [6], no more than 1000 nM; in test [7], no more than 1000 nM. Besides, the figures for the IC50 in test [11] and in test [13] were no more than 1000 nM and 1000 to 25000 nM, respectively.

Consider `O=C(Nc1ccc(F)nc1)c1ccc(Cl)c(-c2ccc(-c3ccccc3)cc2)c1` [Compound 338, 6-Chloro-[1,1′;4′,1″]terphenyl-3-carboxylic acid (6-fluoro-pyridin-3-yl)-amide], for which the IC50 in test [2] is no more than 1000 nM; in [3], no more than 1000 nM; in test [4], 1000 to 25000 nM; in [5], no more than 1000 nM; in [6] it was no more than 1000 nM; in [7] it was no more than 1000 nM. Further, the values for the IC50 in test [11] and in test [13] were no more than 1000 nM and 1000 to 25000 nM, respectively.
